Measured values reported in patent US11696918B2 (priority 2019, dated 2023).
Like-named read-outs stand apart in the source and are kept apart here.

Columns and labels:
[1] = cited from earlier work
herpes simplex virus = conditions: long-term suppressive treatment; cited from earlier work
[2] = cited from earlier work; remark: listed apart in the source
[3] = single dose
HSV-2 MS strain = type: in vivo, BALB/c mice; conditions: for Survival (surviving/total mice): 28 days; for Clinical Scores Overall Mean: daily vaginal clinical score, 4-point system of Table 4
HSV-2 = assay: qPCR of HSV DNA copy number in dorsal root ganglia at day 28; type: in vivo, BALB/c mice
in vivo = conditions: female, BALB/c, mouse
[4] = for quantifiable in at least 1 of 3 mice through: PCV
HSV infected cells = conditions: in HSV infected cells; cited from earlier work
[5] = Group 2: Valcyclovir 125 mg/kg po
[6] = Group 1 HSV-2 A 125 mg/kg PO daily
[7] = Group 2 HSV-2 B 63 mg/kg PO daily

CC(C)[C@H](N)C(=O)OCCOCn1cnc2c(=O)[nH]c(N)nc21 [A, Valacyclovir]
protein binding [1]: < 15%
reduction of transmission risk (herpes simplex virus): 46%
half-life ([2]; approximately): 2.5 to 3.4 h
Mean AUC ([2]; in vivo): 2270 to 19620 ng·h/mL
time to reach maximum concentration ([2]; in vivo): 1.6 to 1.9 h
Clinical Observations: Dead (animals) [3, 5]: 0
Clinical Observations: Hypoactivity (animals) [3, 5]: 0
Clinical Observations: Normal (animals) [3, 5]: 12
Clinical Observations: Ruffled Fur (animals) [3, 5]: 0
Clinical Observations: Shoveling (animals) [3, 5]: 0
Clinical Observations: Squinting (animals) [3, 5]: 0
clinical score index (fraction of mice with a clinical score) (HSV-2 MS strain; Group 1 (A alone), A 125 mg/kg): 0.5
Clinical (mice that had a clinical score/total) (HSV-2 MS strain; [6]): 5/10
Hair loss (mice that had hair loss/total) (HSV-2 MS strain; [6]): 8/10
Illness (mice that had an illness score/total) (HSV-2 MS strain; [6]): 10/10
Survival (surviving/total mice) (HSV-2 MS strain; [6]): 10/10
Clinical Scores Overall Mean (HSV-2 MS strain; [6]): 0.07413
Number Undetectable <3 (qPCR copy number/rxn) (HSV-2; [6]): 5
qPCR Copy number/rxn Overall Mean (HSV-2; [6]): 4.92 Copy number/rxn

Nc1nc2c(ncn2CCC(CO)CO)c(=O)[nH]1 [PCV, penciclovir]
AUC(0-inf) (in vivo; iv, 63 mg/kg, AUCinf): 15200 ng·h/mL
AUC(0-t) (in vivo; iv, 63 mg/kg, AUClast): 15100 ± 2600 ng·h/mL
AUC(0-t) (in vivo; iv, 63 mg/kg, AUClast Mean): 15100 ng·h/mL
Cmax (in vivo; iv, 63 mg/kg, Cmax): 8800 ng/mL
Cmax (in vivo; iv, 63 mg/kg, Cmax Mean): 8800 ng/mL
Tmax (in vivo; iv, 63 mg/kg, Tmax, Group 1: 125 mg/kg VACV and 63 mg/kg FCV, iv, single dose, plasma): 0.083 h
half-life (in vivo; iv, 63 mg/kg, t1/2, Group 1: 125 mg/kg VACV and 63 mg/kg FCV, iv, single dose, plasma): 1.29 h
half-life (in vivo; iv, 63 mg/kg, t1/2, plasma PCV, Group 1: 125 mg/kg VACV and 63 mg/kg FCV iv): 1.29 h
AUC(0-inf) (in vivo; po, 16 mg/kg, AUCinf): 6200 ng·h/mL
AUC(0-t) (in vivo; po, 16 mg/kg, AUClast Mean): 6100 ng·h/mL
Cmax (in vivo; po, 16 mg/kg, Cmax Mean): 4590 ng/mL
Tmax (in vivo; po, 16 mg/kg, Tmax): 0.5 h
half-life (in vivo; po, 16 mg/kg, t1/2): 1.89 h
AUC(0-inf) (in vivo; po, 32 mg/kg, AUCinf): 5140 ng·h/mL
AUC(0-t) (in vivo; po, 32 mg/kg, AUClast Mean): 5010 ng·h/mL
Cmax (in vivo; po, 32 mg/kg, Cmax Mean): 3150 ng/mL
Tmax (in vivo; po, 32 mg/kg, Tmax): 0.5 h
half-life (in vivo; po, 32 mg/kg, t1/2): 2.34 h
AUC(0-inf) (in vivo; po, 63 mg/kg): 11300 ng·h/mL
AUC(0-t) (in vivo; po, 63 mg/kg): 10600 ± 727 ng·h/mL
Cmax (in vivo; po, 63 mg/kg): 8120 ± 565 ng/mL
Tmax (in vivo; po, 63 mg/kg): 0.25 h
half-life (in vivo; po, 63 mg/kg): 0.97 h
AUC(0-inf) (in vivo; po, 63 mg/kg, AUCinf): 19200 ng·h/mL
AUC(0-t) (in vivo; po, 63 mg/kg, AUClast Mean): 18400 ng·h/mL
Cmax (in vivo; po, 63 mg/kg, Cmax Mean): 7100 ng/mL
Tmax (in vivo; po, 63 mg/kg, Tmax): 0.5 h
half-life (in vivo; po, 63 mg/kg, t1/2): 2.34 h
AUC(0-inf) (in vivo; po, 125 mg/kg, AUCinf): 50900 ng·h/mL
AUC(0-t) (in vivo; po, 125 mg/kg, AUClast Mean): 50200 ng·h/mL
Cmax (in vivo; po, 125 mg/kg, Cmax Mean): 16900 ng/mL
half-life (in vivo; po, 125 mg/kg, t1/2): 1.31 h
AUC(0-inf) (in vivo; po, AUCinf): 85500 ng·h/mL
AUC(0-t) (in vivo; po, AUClast Mean): 84500 ng·h/mL
Cmax (in vivo; po, Cmax Mean): 31200 ng/mL
Tmax (in vivo; po, Tmax, Group 8: VACV 500 mg/kg and FCV 250 mg/kg in combination, po, plasma): 1 h
half-life (in vivo; po, t1/2, Group 8: VACV 500 mg/kg and FCV 250 mg/kg in combination, po, plasma): 4.3 h
half-life (in vivo; po, t1/2, plasma PCV, Group 8: 500 mg/kg VACV + 250 mg/kg FCV po): 4.3 h
t1/2 ([4]; Group 3: 63 mg/kg FCV, po, single dose, plasma): 0.97 h
quantifiable in at least 1 of 3 mice through ([4]; Group 1: 125 mg/kg VACV + 63 mg/kg FCV iv): 24 h
quantifiable in at least 1 of 3 mice through ([4]; Group 5: 63 mg/kg VACV + 32 mg/kg FCV po): 24 h
quantifiable in at least 1 of 3 mice through ([4]; Group 8: 500 mg/kg VACV + 250 mg/kg FCV po): 24 h
AUClast Mean ([4]; female, BALB/c, mouse, in vivo, po, 63 mg/kg): 10609 ng·h/mL

CC(=O)OCC(CCn1cnc2cnc(N)nc21)COC(C)=O [B, Famciclovir]
intracellular half-life (HSV infected cells): 10 to 20 h
bioavailability ([2]; in vivo): 77%
plasma half-life ([2]; in vivo): 2 to 2.5 h
time to reach maximum concentration ([2]; in vivo): 0.5 to 0.75 h
Clinical Observations: Dead (animals) ([3]; Group 3: Famcyclovir 63 mg/kg po, died during first blood collection): 1
Clinical Observations: Dead (animals) ([3]; Group 3: Famcyclovir 63 mg/kg po, died during first blood collection, listed as FCV): another animal died
clinical score index (fraction of mice with a clinical score) (HSV-2 MS strain; Group 2 (B alone), B 63 mg/kg): 0.8
Clinical (mice that had a clinical score/total) (HSV-2 MS strain; [7]): 8/10
Hair loss (mice that had hair loss/total) (HSV-2 MS strain; [7]): 6/10
Illness (mice that had an illness score/total) (HSV-2 MS strain; [7]): 9/10
Survival (surviving/total mice) (HSV-2 MS strain; [7]): 9/10
Clinical Scores Overall Mean (HSV-2 MS strain; [7]): 0.3125
Number Undetectable <3 (qPCR copy number/rxn) (HSV-2; [7]): 2
qPCR Copy number/rxn Overall Mean (HSV-2; [7]): 28.32 Copy number/rxn
